The record followed here is patent US10144690B2, “1,2-diphenylethylene glycol compounds for combating aging of the skin, and cosmetic use thereof” (L'OREAL, priority 2014, dated 2018).

The subject of this experiment is phospho-AMPK (Thr-172) (p-AMPK). The experiment is described as follows: p-AMPK expression by Western blotting in normal human epidermal keratinocytes (p-AMPK/GAPDH ratio relative to control). Format: cell-based. Conditions: 12 hours incubation. The procedure:
Normal human epidermal keratinocytes are seeded at 180 000 cells per well and cultured in SFM culture medium (supplier Gibco) supplemented with 0.25 ng/ml EGF, 25 μg/ml of pituitary extract and 25 μg/ml gentamicin, up to confluence, and incubated in a humid oven at 37° C. and 5% CO2. The culture medium was then replaced with test medium (SFM (Gibco) supplemented with 25 μg/ml gentamicin) containing or not containing (control) the test compounds, the combinations or the reference (AICAR—(5-amino-4-imidazolecarboxamide riboside) at 500 μM). The cells were then incubated for 12 hours.
The level of expression of p-AMPK was analyzed by Western blotting.
At the end of the incubation, the proteins were extracted and quantified and then separated by electrophoresis on 10% polyacrylamide gel and then transferred onto a nitrocellulose membrane.
Between each successive revelation, the antibodies were detached using a “stripping” buffer. The images were acquired with a Fuji LAS 3000 chemiluminescence scanner (Fujifilm) and the densitometric analyses were performed using the Multigauge software (Fujifilm).
An increase in the phosphorylated form of AMPK (active form of the enzyme) relative to the control is evaluated in this test.
Expressed in the form of the p-AMPK/GAPDH ratio relative to the control (100%): […]
(In general: In western blotting, separated proteins are transferred to a membrane and probed.)

`COc1ccc([C@@H](O)[C@H](O)c2ccc(OC)cc2)cc1` [Compound 1]: the “p-AMPK/GAPDH ratio relative to the control (100%)” value is 133% (test compound 1 μM), 171% (test compound 10 μM) and 198% (test compound 100 μM).
For `COc1ccc(C(O)[C@H](O)c2ccc(OC)cc2)cc1` (stereo partly drawn) [Compound 2], the “p-AMPK/GAPDH ratio relative to the control (100%)” value by setting is: (test compound 1 μM) 94%; (test compound 10 μM) 134%; (test compound 100 μM) 149%.
In the same order, the values of `COc1cc(C(O)C(O)c2ccc(O)c(OC)c2)ccc1O` (stereo not drawn) [Compound 3] are 112%, 147% and 158%.
Consider `Oc1ccc(C(O)C(O)c2cc(O)cc(O)c2)cc1` (stereo not drawn) [Compound 4], for which the “p-AMPK/GAPDH ratio relative to the control (100%)” value by setting is: (test compound 1 μM) 132%; (test compound 10 μM) 140%; (test compound 100 μM) 159%.
